Laboratory results: patent US20230013435A1, “COMPOSITION FOR TREATING SYNUCLEINOPATHIES” (STANDIGM INC., priority 2019, published 2023)

Tested on: SH-SYSY cell line
Test: Cytotoxicity, cell viability by MTT test
Type: cell-based
Settings: SH-SYSY cells
Description: An SH-SYSY cell line (ATCC) was used to confirm the cytotoxicity of nevirapine. The SH-SYSY cell line was seeded in a 96-well plate, cultured, treated with an increasing concentration (0, 10, 100 μM) of nevirapine, and then incubated at a constant temperature for 24 hours. Thereafter, cell viability was measured using an MTT test method. Cells treated with 0 μM nevirapine were used as the control. ***P<0.001 against the control. Also, in the next experiment, the cytotoxicity of pirenzepine to be used as a reference drug was tested in the same manner as in the cytotoxicity experiment of nevirapine.

Row | SMILES | cell viability compared with the control (10 μM, 24 hours) | decrease in cell viability (100 μM, 24 hours) | cell viability compared with the control (0.5 μM) | decrease in cell viability (10 μM)
1 | Cc1ccnc2c1NC(=O)c1cccnc1N2C1CC1 [nevirapine, 11-cyclopropyl-5,11-dihydro-4-methyl-6H-dipyrido[3,2-b:2′,3′-e][1,4]diazepin-6-one] | not changed significantly | approximately 70% |  | 
2 | CN1CCN(CC(=O)N2c3ccccc3C(=O)Nc3cccnc32)CC1 [pirenzepine] |  |  | slight decrease | approximately 60%
